Measured values as given in ChEMBL document CHEMBL3885861, “Open TG-GATES”.

Organism: Rattus norvegicus
Assay: Open TG-GATES - Regimen: Single
Type: toxicity, organism-based, Sprague-Dawley
Design: regimen Single, gender Male, age 6 weeks
Conditions: in vivo, po, 300 mg/kg, route gavage, dose level High; for APTT / Bas / Eos / Fbg / Hb / Ht / Lym / MCH / MCHC / MCV / Mono / Neu / PT / Plat / RBC / Ret / WBC: tissue Blood; for KIDNEY_L / KIDNEY_R / KIDNEY_TOTAL: tissue Kidney; for LIVER: tissue Liver; for A/G / ALP / ALT / AST / BUN / CRE / Ca / Cl / DBIL / GLC / IP / K / LDH / Na / PL / RALB / TBIL / TC / TG / TP / gamma-GTP: tissue Plasma

CC[C@H]1[C@@H]2C[C@H]3[C@@H]4N(C)c5ccccc5[C@]45C[C@@H]([C@@H]2[C@H]5O)N3[C@@H]1O [AJMALINE] was tested, and the TERMINAL_BW (3 h) was 194.9 g, the APTT (3 h) was 17 s and the Bas (3 h) was 0%. For the same compound, the Eos (3 h) was 0.6%, the Fbg (3 h) was 201.8 mg/dL and the Hb (3 h) was 13 g/dL. It also gave a Ht (3 h) of 39.5%, a Lym (3 h) of 80.6% and an MCH (3 h) of 21.3 pg. It also gave an MCHC (3 h) of 32.8%, an MCV (3 h) of 64.8 fL and a Mono (3 h) of 6.4%. For the same compound, the Neu (3 h) was 12.6%, the PT (3 h) was 11.9 s and the Plat (3 h) was 106.2 x10_4/uL. The RBC (3 h) was 611.2 x10_4/ul, the Ret (3 h) was 11.5% and the WBC (3 h) was 94.5 x10_2/uL. The KIDNEY_L (3 h) was 0.9 g, the KIDNEY_R (3 h) was 0.9 g and the KIDNEY_TOTAL (3 h) was 1.9 g. For the same compound, the LIVER (3 h) was 9.2 g, the A/G (3 h) was 2.3 and the ALP (3 h) was 955.4 IU/L. The ALT (3 h) was 34 IU/L, the AST (3 h) was 64.6 IU/L and the BUN (3 h) was 13.2 mg/dL. The CRE (3 h) was 0.4 mg/dL, the Ca (3 h) was 10.6 mg/dL and the Cl (3 h) was 103.6 meq/L. The DBIL (3 h) was 0.018 mg/dL, the GLC (3 h) was 184.6 mg/dL and the IP (3 h) was 8.9 mg/dL. The K (3 h) was 4.4 meq/L, the LDH (3 h) was 108.4 IU/L and the Na (3 h) was 137.8 meq/L. The PL (3 h) was 135 mg/dL, the RALB (3 h) was 3.7 g/dL and the TBIL (3 h) was 0.4 mg/dL. It also gave a TC (3 h) of 71.4 mg/dL, a TG (3 h) of 57.8 mg/dL and a TP (3 h) of 5.3 g/dL. For the same compound, the gamma-GTP (3 h) was 1 IU/L, the TERMINAL_BW (6 h) was 195.8 g and the APTT (6 h) was 17.3 s. For the same compound, the Bas (6 h) was 0%, the Eos (6 h) was 1.2% and the Fbg (6 h) was 211.8 mg/dL. It also gave a Hb (6 h) of 13.1 g/dL, a Ht (6 h) of 40% and a Lym (6 h) of 69.2%. It also gave an MCH (6 h) of 21.6 pg, an MCHC (6 h) of 32.7% and an MCV (6 h) of 66 fL. For the same compound, the Mono (6 h) was 8.8%, the Neu (6 h) was 20.6% and the PT (6 h) was 11.8 s. It also gave a Plat (6 h) of 109.7 x10_4/uL, an RBC (6 h) of 607 x10_4/ul and a Ret (6 h) of 11.3%. The WBC (6 h) was 82.2 x10_2/uL, the KIDNEY_L (6 h) was 0.9 g and the KIDNEY_R (6 h) was 1 g. It also gave a KIDNEY_TOTAL (6 h) of 1.9 g, an LIVER (6 h) of 9 g and an A/G (6 h) of 2.1. The ALP (6 h) was 795 IU/L, the ALT (6 h) was 32.2 IU/L and the AST (6 h) was 64.6 IU/L. It also gave a BUN (6 h) of 10.4 mg/dL, a CRE (6 h) of 0.5 mg/dL and a Ca (6 h) of 10.8 mg/dL. It also gave a Cl (6 h) of 102.6 meq/L, a DBIL (6 h) of 0.062 mg/dL and a GLC (6 h) of 184.6 mg/dL. The IP (6 h) was 9.2 mg/dL, the K (6 h) was 4.6 meq/L and the LDH (6 h) was 93.2 IU/L. The Na (6 h) was 137.2 meq/L, the PL (6 h) was 142.6 mg/dL and the RALB (6 h) was 3.7 g/dL. For the same compound, the TBIL (6 h) was 0.4 mg/dL, the TC (6 h) was 77.8 mg/dL and the TG (6 h) was 40.2 mg/dL. It also gave a TP (6 h) of 5.4 g/dL, a gamma-GTP (6 h) of 1.8 IU/L and a TERMINAL_BW (9 h) of 189 g. For the same compound, the APTT (9 h) was 16.4 s, the Bas (9 h) was 0% and the Eos (9 h) was 1.4%. The Fbg (9 h) was 215.8 mg/dL, the Hb (9 h) was 13.2 g/dL and the Ht (9 h) was 40.1%. It also gave a Lym (9 h) of 72.8%, an MCH (9 h) of 21.2 pg and an MCHC (9 h) of 32.9%. For the same compound, the MCV (9 h) was 64.4 fL, the Mono (9 h) was 8% and the Neu (9 h) was 18.4%. For the same compound, the PT (9 h) was 11.9 s, the Plat (9 h) was 117.8 x10_4/uL and the RBC (9 h) was 623.8 x10_4/ul. It also gave a Ret (9 h) of 11.7%, a WBC (9 h) of 70.8 x10_2/uL and a KIDNEY_L (9 h) of 0.9 g. The KIDNEY_R (9 h) was 0.9 g, the KIDNEY_TOTAL (9 h) was 1.7 g and the LIVER (9 h) was 8.5 g. For the same compound, the A/G (9 h) was 2.3, the ALP (9 h) was 780.6 IU/L and the ALT (9 h) was 31 IU/L. For the same compound, the AST (9 h) was 62.8 IU/L, the BUN (9 h) was 13.2 mg/dL and the CRE (9 h) was 0.6 mg/dL. The Ca (9 h) was 10.5 mg/dL, the Cl (9 h) was 103.6 meq/L and the DBIL (9 h) was 0.078 mg/dL. It also gave a GLC (9 h) of 178 mg/dL, an IP (9 h) of 10.1 mg/dL and a K (9 h) of 5 meq/L. It also gave an LDH (9 h) of 113.8 IU/L, a Na (9 h) of 138.4 meq/L and a PL (9 h) of 146.4 mg/dL. For the same compound, the RALB (9 h) was 3.8 g/dL, the TBIL (9 h) was 0.4 mg/dL and the TC (9 h) was 87.8 mg/dL. The TG (9 h) was 50 mg/dL, the TP (9 h) was 5.4 g/dL and the gamma-GTP (9 h) was 1 IU/L. It also gave a TERMINAL_BW (24 h) of 206.4 g, an APTT (24 h) of 16 s and a Bas (24 h) of 0%. For the same compound, the Eos (24 h) was 1%, the Fbg (24 h) was 199.4 mg/dL and the Hb (24 h) was 13 g/dL. For the same compound, the Ht (24 h) was 39.3%, the Lym (24 h) was 79.8% and the MCH (24 h) was 21.6 pg. The MCHC (24 h) was 33%, the MCV (24 h) was 65.5 fL and the Mono (24 h) was 6.8%. For the same compound, the Neu (24 h) was 12.6%, the PT (24 h) was 11.8 s and the Plat (24 h) was 108 x10_4/uL. The RBC (24 h) was 599.6 x10_4/ul, the Ret (24 h) was 9.9% and the WBC (24 h) was 77.5 x10_2/uL. It also gave a KIDNEY_L (24 h) of 1 g, a KIDNEY_R (24 h) of 1 g and a KIDNEY_TOTAL (24 h) of 1.9 g. The LIVER (24 h) was 9.9 g, the A/G (24 h) was 2.2 and the ALP (24 h) was 860.6 IU/L. The ALT (24 h) was 37.4 IU/L, the AST (24 h) was 69 IU/L and the BUN (24 h) was 18 mg/dL. It also gave a CRE (24 h) of 0.6 mg/dL, a Ca (24 h) of 11 mg/dL and a Cl (24 h) of 101.4 meq/L. It also gave a DBIL (24 h) of 0.03 mg/dL, a GLC (24 h) of 196.4 mg/dL and an IP (24 h) of 9.1 mg/dL. The K (24 h) was 4.6 meq/L, the LDH (24 h) was 109.4 IU/L and the Na (24 h) was 139.4 meq/L. It also gave a PL (24 h) of 149.4 mg/dL, an RALB (24 h) of 3.7 g/dL and a TBIL (24 h) of 0.4 mg/dL. It also gave a TC (24 h) of 83.8 mg/dL, a TG (24 h) of 99 mg/dL and a TP (24 h) of 5.3 g/dL. For the same compound, the gamma-GTP (24 h) was 0.8 IU/L.
